We go through one compound from patent US12677825B2, “Composition for protecting islet transplantation” (LG CHEM, LTD., priority 2020, dated 2026).

The subject of test [1] is STZ-induced diabetic hIAPP+/− FVB/N mice. Put plainly: Marginal mass renal subcapsular islet transplantation, islets isolated with or without Compound 1. In kind it is in vivo, mouse. Here is the method: Mouse islets were isolated from 10- to 12-week-old hIAPP^+/− and C57BL/6 mice as described previously. Briefly, 0.8 mg/mL of collagenase P (Roche, Indianapolis, IN, USA) in Hank's buffered saline solution (HBSS, Sigma-Aldrich, St. Louis, MO, USA) with or without 20 μM Compound 1 were infused into the common bile duct for mouse pancreas digestion. Islets were purified from the digested pancreas using a Ficoll (Biochrom, Berlin, Germany) gradient and washed several times with 1 xHBSS. Isolated islets were cultured while free-floating in 10 mL of RPMI 1640 (Gibco, Grand Island, NY, USA). The medium was supplemented with 10% heat-inactivated FBS (fetal bovine serum) at 37° C. and 5% CO2 incubation prior to the ex vivo and in vivo studies.
A marginal mass renal subcapsular islet transplantation model was used to assess the in vivo islet function of hIAPP^+/− mice. To induce diabetes, 180 mg/kg of streptozotocin (STZ, Sigma-Aldrich) was administered to 8- to 10-week-old FVB/N mice. Mice were considered to have diabetes when two consecutive blood glucose level readings were higher than 300 mg/dL. Equal amounts (400 IEQ of islets per recipient) of islets isolated from hIAPP^+/− mice were allocated to the following two groups: culture medium supplemented with 0.625% BSA (BSA group) and 0.625% BSA plus Compound 1 (BSA+Compound 1 group) to evaluate the combined effect of Compound 1 on islet mass and function during ex vivo culture. After culture for 72 hours, islets were transplanted into the renal subscapular space of diabetic hIAPP^+/− mice. The IE number was calculated using the Ricordi algorithm by classifying islets according to their diameter. After islet transplantation, non-fasting blood glucose levels were measured three times a week for the first 2 weeks and twice a week for the last 2 weeks.
At 4 weeks after transplantation, the transplantation site on the kidney of mouse were removed and embedded in paraffin. Immunohistochemical staining is briefly explained in the following. After deparaffinization, 4-μm tissue sections were stained with the polyclonal guinea pig anti-insulin antibody (1:1000, A0546, DAKO, Denmark), glucacon (1:500, ab92517, abcam, United Kingdom) and amyloid (1:2500, #44-344, Invitrogen). Stained slides were observed using an Olympus BX40 light microscope (Olympus, Japan) with […] numeric aperture and ×40/0.75 numeric aperture objectives. Photographic images were collected with a digital camera (Olympus DP50) and analyzed using the Image-Pro Plus 5.1 software.
For quantification of the DAB-labeled β-cells, all slides were imaged at 10× on a Vectra 3.0 automated quantitative pathology imaging system and analyzed using inForm software (all from Perkin-Elmer, Waltham, MA, USA). The transplanted renal tissue sections were scanned for image acquisition and then to set the transplanted tissue segmentation, a number of representative regions of transplanted islet cells and regions to be excluded from the analysis such as renal tissues were examined by learn-by-example interface. For the β-cell segmentation, a spectral library was used to identify the hematoxylin-stained nuclei and the DAB-stained cytoplasm (β-cells) within the transplanted tissue. With these training sets, the algorithm for identifying only the DAB-stained cells in the transplanted tissue was verified. All the captured 10× images were analyzed, and the DAB-stained transplanted β-cells were counted.

The subject of test [2] is hIAPP+/− FVB/N mice islets. Briefly: AO/PI staining viability during serum-deprived culture. In kind it is cell-based, mouse. The settings on record: BSA culture 72 hours, with Compound 1 vs BSA alone; FIGS. 6A, 6B. The protocol:
(§1) Purified hIAPP^+/− FVB/N and C57BL/6J mouse were suspended in RPMI 1640 (Gibco, Grand Island, NY, USA) containing 100 IU/mL penicillin and 100 μg/mL streptomycin, and cultured at 37° C. in a fully humidified 5% CO2 atmosphere. Purified NHP islets were suspended in CMRL 1066 medium (Coming Life Sciences, Tewksbury, MA; catalog number 99-663-CV) containing 100 IU/mL penicillin and 100 μg/mL streptomycin, and cultured at 37° C. in a fully humidified 5% CO2 atmosphere. […]
Islet viability after isolation and culture was assessed using double fluorescence in acridine orange (0.67 […]) and propidium iodide (75 […]) (AO/PI) staining to visualize the living and dead islet cells simultaneously. Fluorescent imaging was performed with a fluorescence microscope (Nikon ECLIPSE 80i, Tokyo, Japan) and live and dead areas were quantified using NIS-Element AR 3.0 (Nikon). The islet viability (%) was calculated as living islet cells/total islet cells×100.

Test [3] deals with islets from hIAPP+/− mouse. Put plainly: GSIS assay after serum-deprived culture. The format is cell-based. The settings on record: Compound 1 added to medium during serum-deprived culture; FIG. 6E. The protocol:
as §1
After hand-picking and washing with PBS, islets were seeded on 12-mm diameter insert wells (Merck Millipore, Billerica, MA, USA) with 10 islets per well, and preincubated with 60 mg/dL glucose in Kreb's-Ringer buffer (KRB: 129 mM NaCl, 4.8 mM KCl, 2.5 mM CaCl2, 1.2 mM KH2PO4, 5 mM NaHCO3, 10 mM HEPES, and 0.2% BSA) for 90 mM at 37° C. […] Insulin release into the supernatant by the mouse islets was measured by ELISA (ALPCO, Salem, NH, USA) and a multiplex kit (Merck Millipore), respectively.

Regarding `O=S1(=O)CCN(Cc2cc(NC3CCOCC3)c3[nH]c(-c4ccccc4)cc3c2)CC1` [Compound 1], in test [1] (islets isolated with Compound 1, vs control group, FIG. 3C), the diabetes reversal rate result is on record as “better”. In addition, in test [1] (islets isolated with Compound 1, vs control group, FIG. 3F), the “proportion of insulin positive area in the grafted tissue” value is “greater”. In addition, in test [1] (islets isolated with Compound 1, vs control group, FIGS. 3D, 3E), the “glucose levels during intraperitoneal glucose tolerance test (IPGTT)” value is recorded as “better”. Also, in test [1] (islets isolated with Compound 1, vs non-treated group, FIG. 3B), the post-transplant glucose levels entry is on record as “markedly lower”. The “glycemia after removal of the grafted kidney” value in test [1] (islets isolated with Compound 1, FIG. 3B) is recorded as “regain of hyperglycemia”. The “cell viability assessed by AO/PI staining” value in test [2] is “significantly improved”. The stimulation index result in test [3] is “significantly increased”.
